Here are results for 1 compound from patent publication US20150352075A1, “Treatment of Alzheimer's and Cognitive Impairment With Andrographolides” (INNOBIOSCIENCE, LLC, priority 2013, published 2015).

Molecules are shown by their SMILES. Read-outs that look alike come from different tables or passages of the source.

The test system of test [1] is Wnt target genes in cultured hippocampal neurons. The test can be described thus: PCR array of Wnt target genes in hippocampal neurons. It counts as cell-based, rat. On the procedure:
Primary culture of rat hippocampal neurons. […] PCR-ARRAY. RNA from hippocampal neurons was extracted using Trizol. Quantification and purity of RNA preparations were checked by absorbance using Nanodrop ND-2000. Only preparations with a 260/280 nm ratio ≧1.8, a 260/230 nm ratio ≧1.7 and no sign of RNA degradations, verified by agarose gel electrophoresis with Gel Red™ were used. Genomic DNA was degraded. Using RT2First-Strand cDNA Synthesis kit (SuperArray), 1 ng total RNA was reverse transcribed and then real-time PCR was performed by adding cDNA directly to PCR Master Mix, containing SYBR Green and ROX. The mixtures were then aliquoted into a 96-well PCR array plates, which profiles the expression of 84 Wnt target genes from rat. The PCR was run on ABI StepOnePlus, with 1 cycle of 10 min at 95° C. followed by 40 cycles of 15s at 95° C. and 1 min at 60° C. […] Treatment of neuronal cultures. Primary hippocampal cultures of neurons 14 DIV were washed twice in neurobasal medium and maintained for 1 hour. Next ANDRO (10 μM) and 6-BIO (10 μM) were added to different time periods.

Test [2] has as its target T1, Immunoprecipitated GSK-3β from hippocampus of wild-type mice (Mus musculus, UniProt Q9WV60).
T1 construct: the hippocampus of two month-old wild-type mice were lysed in immunoprecipitation buffer; from tissue; host or cells: hippocampus of two-month-old wild-type mice (immunoprecipitated with anti-GSK-3β antibody, Santa Cruz)
The test can be described thus: Luminometric GSK-3β activity assay. It counts as biochemical. The method, then:
The immunoprecipitation was performed as previously described (Garrido et al, 2002). Briefly, the hippocampus of two month-old wild-type mice were lysed in immunoprecipitation buffer (25 mM HEPES pH 7.4, 125 mMNaCl, 25 mMNaF, 1 mM EDTA, 1 mM EGTA, 1% NP-40) including phosphatase inhibitors (1 mM NaVO3 and 200 nM okadaic acid) and the protease inhibitor cocktail described above. 200 μg of total proteins from lysate were precleared by using protein G-Sepharose beads (Santa Cruz Biotechnology) for 1 h at 4° C. and then were incubated with anti-GSK-3β antibody (Santa Cruz Biotechnology) and new protein G beads for 4 h at 4° C. The immunocomplexes were finally pelleted and washed three times with cold immunoprecipitation buffer.
IC50 of ANDRO was determined by a luminometric GSK-3β activity assay. […] Briefly, ANDRO was tested at different concentrations and diluted in kinase buffer containing final concentrations of: 40 mM Tris pH 7.5; 20 mM MgCl2; 0.1 mg/ml BSA. […] The enzymatic reaction was stopped after 10 min of incubation to room temperature by adding 50 μl Kinase Glo (Promega, Madison, USA). The luminometric signal was allowed to stabilize for 10 min and the measured with a Luminometer TURNER DESIGNS model TD-2020.

T1 sequence (Q9WV60 whole entry): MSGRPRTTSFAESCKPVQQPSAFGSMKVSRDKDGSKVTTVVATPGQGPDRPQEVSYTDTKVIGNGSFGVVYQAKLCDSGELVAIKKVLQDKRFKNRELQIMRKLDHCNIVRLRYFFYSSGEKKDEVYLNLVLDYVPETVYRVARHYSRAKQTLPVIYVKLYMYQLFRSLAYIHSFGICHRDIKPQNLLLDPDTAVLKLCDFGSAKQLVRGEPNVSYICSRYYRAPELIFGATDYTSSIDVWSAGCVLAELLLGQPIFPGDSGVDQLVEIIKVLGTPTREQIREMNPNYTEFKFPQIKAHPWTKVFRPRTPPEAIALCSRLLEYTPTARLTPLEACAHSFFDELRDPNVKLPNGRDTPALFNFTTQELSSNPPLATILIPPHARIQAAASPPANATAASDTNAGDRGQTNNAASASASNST

Take `C=C1CC[C@@H]2C(C)(CO)C(O)CC[C@@]2(C)C1C/C=C1/C(=O)OCC1O` (stereo in doubt) [ANDRO, 3-(2-(Decahydro-6-hydroxy-5-(hydroxymethyl)-5,8a-dimethyl-2-methylenenaphthyl)ethylidene)dihydro-4-hydroxyfuran-2(3H)-one]: the Cdh-1 gene expression result in test [1] is “differential expression induced by ANDRO”. In test [1] (9 h, of the 86 genes analyzed), the “number of Wnt target genes specifically modulated” value came out at 3 genes and the “number of modulated Wnt target genes shared by both treatments” value came to 4. Besides, in test [1] (after Bonferroni correction), the Ets2 gene expression result is given as “down-regulation of Ets2 gene”. Further, the IC50 in test [2] (25 μM pGS-2 peptide substrate, 10 μM ATP, preincubation 10 min, read-out: inhibition constant (IC50) of GSK-3β activity) stood at 5.58 µM. Moreover, the “GSK-3β inhibition in the presence of DTT” value in test [2] (0.5 mM DTT) is recorded as “neither prevents the inhibition generated by ANDRO”. Also, in test [2] (different concentrations of ATP, read-out: IC50 using different concentrations of ATP), the IC50 is approximately 5.58 µM. In addition, the “IC50 at increased substrate concentration” value in test [2] (different concentrations of the substrate) was “increase in the IC50 of ANDRO”.
